From patent US20230126568A1, “PRODUCTION METHOD FOR […] AND UTILIZATION THEREOF” (FUJIFILM Corporation, priority 2020, published 2023)
Where two headings read alike, the source gives them in different places.

How the values were obtained:
[1] = Midazolam permeability of intestinal epithelial cells (apical to basolateral, cell culture insert); format: in vitro ADME; settings: human; for Papp A→B at 60 min, 10 μmol/L: 10 μmol/L midazolam apical pH 6.5, basolateral pH 7.4, 37° C., read-out: Apparent permeability coefficient; for Papp at 60 min, 10 μmol/L: read-out: Apparent permeability coefficient after correction
Description: The midazolam permeability of the intestinal epithelial cells obtained in Comparative Examples 1 and Examples 1 to 5 was evaluated. After the end of the induction of differentiation, HBSS (pH 6.5) was added to the apical side and HBSS (pH 7.4) was added to the lower bottom (basolateral) side, and pre-incubation was carried out at 37° C. for 60 minutes. Then, HBSS (pH 6.5) containing 10 μmol/L midazolam was added to the apical side, and HBSS (pH 7.4) was added to the lower bottom (basolateral) side, and incubation was carried out at 37° C. for 60 minutes. A sample was collected from the lower bottom (basolateral) side every 15 minutes. The amount of each compound (unchanged form) was quantified using a liquid chromatography-mass spectrometer (LC-MS/MS). The apparent permeability coefficient (Papp) was calculated from the quantification result.
The apparent permeability coefficient was corrected by using the scaling factor x for the apparent permeability coefficient of Example 4 obtained in Test Example 6. At this time, the following expression was used.
The permeation amount per unit time=(the B60 substrate amount−x ×the difference in the B60 substrate amount due to the presence or absence of the addition of the metabolism inhibitor)/the permeation time

[2] = test system: intestinal epithelial cells; test: Fg of midazolam calculated from the permeation test (Expression 1 / Expression 2); format: in vitro ADME, human; settings: cells of Example 4
Description: Fg=(the B60 substrate amount+the cell 60 substrate amount)/(the B60 substrate amount +cell 60 substrate amount+the total 60 metabolite amount) (Expression 1)
The B60 substrate amount: The mass of the substrate permeated to the B side 60 minutes after the test substance serving as a substrate was added to the A side.
The cell 60 substrate amount: The mass of the substrate accumulated in the cells 60 minutes after the test substance serving as a substrate was added to the A side.
The total 60 metabolite amount: Total amount of the metabolite accumulated on the A, on the B side, and in the cells 60 minutes after the test substance serving as a substrate was added to the A side.

[3] = test system: small intestinal tissue of a living body; settings: in vitro; cited from earlier work
[4] = small intestine of a living body; cited from earlier work

Compound: Cc1ncc2n1-c1ccc(Cl)cc1C(c1ccccc1F)=NC2 [midazolam]
- Papp A→B at 60 min, 10 μmol/L ([1]; cells of Comparative Example 1): 48 ×10⁻⁶ cm/s
- Papp A→B at 60 min, 10 μmol/L ([1]; cells of Example 1): 30 ×10⁻⁶ cm/s
- Papp A→B at 60 min, 10 μmol/L ([1]; cells of Example 2): 32 ×10⁻⁶ cm/s
- Papp A→B at 60 min, 10 μmol/L ([1]; cells of Example 3): 33 ×10⁻⁶ cm/s
- Papp A→B at 60 min, 10 μmol/L ([1]; cells of Example 4): 31 ×10⁻⁶ cm/s
- Papp at 60 min, 10 μmol/L ([1]; cells of Example 4, scaling factor x = 2): 21.9 ×10⁻⁶ cm/s
- Papp at 60 min, 10 μmol/L ([1]; cells of Example 4, scaling factor x = 3): 15.2 ×10⁻⁶ cm/s
- Papp at 60 min, 10 μmol/L ([1]; cells of Example 4, scaling factor x = 4): 8.6 ×10⁻⁶ cm/s
- Papp at 60 min, 10 μmol/L ([1]; cells of Example 4, scaling factor x = 5): 1.9 ×10⁻⁶ cm/s
- Papp at 60 min, 10 μmol/L ([1]; cells of Example 4, scaling factor x = 5.2): 0.6 ×10⁻⁶ cm/s
- Papp A→B at 60 min, 10 μmol/L ([1]; cells of Example 5): 31 ×10⁻⁶ cm/s
- Fg simply calculated by Expression 1 ([2]; no scaling factor): 0.83
- Fg after correction ([2]; scaling factor x = 1): 0.83
- Fg after correction ([2]; scaling factor x = 2): 0.70
- Fg after correction ([2]; scaling factor x = 4): 0.54
- Fg after correction ([2]; scaling factor x = 6): 0.44
- Fg after correction ([2]; scaling factor x = 8): 0.37
- Fg after correction ([2]; scaling factor x = 10): 0.32
- Fg after correction ([2]; scaling factor x = 12): 0.28
- apparent permeability coefficient [3]: 5e-06 cm/s
- Fa (absorption rate in the intestinal tract) [4]: 1.0
